The subject of data set [1] is human esophageal cancer cell line KYSE-270. Kind of data set: Subcutaneous xenograft of human esophageal cancer cell line KYSE-270 in NMRI nude mice: tumor growth. In kind it is in vivo, mouse. The conditions noted are these: for Tumor shrinkage [x/y]: Paclitaxel 10 mg/Kg q7d. As for the experimental part: 1.1. Model: Subcutaneous xenograft of human esophageal cancer cell line KYSE-270 in NMRI nude mice.
1.3. Cells: KYSE-270 is an esophageal cancer cell line (Public Health England, catalog number: 94072021). Cells were cultured in T175 tissue culture flasks containing 5% CO2 at 37° C. The medium was RPMI 1640+HAM F12 (1:1) supplemented with 2% FCS and 2 mM Glutamax. Passage was performed three times a week at a ratio of 1:2.
1.4. Mice: Mice were 8 to 10 week old female mice (BomTac: NMRI-Foxn1^nu) purchased from Taconic®, Denmark. Upon arrival in the animal room, the mice were allowed to acclimate for at least 5 days before being used for assay. The animals were housed under standard conditions (temperature: 21.5±1.5° C., humidity: 55+10%), 7 to 10 mice for each group. A standard diet and autoclaved tap water were provided for ad libitum feeding. A subcutaneous microchip implanted under isoflurane anesthesia was used to identify each mouse.
1.5. Random establishment of tumors: To establish subcutaneous tumors, KYSE-270 cells were harvested by centrifugation, washed and resuspended in PBS+5% FCS at a concentration of 5×10^7 cells/ml. Then 100 l of cell suspension containing 5×10^6 cells was injected subcutaneously into the right flank of mice (1 site per mouse). When tumors were well established and reached a volume of 94 to 252 mm^3, mice were randomly assigned to the treatment group and the control group (13 days after cell injection).
1.6. Administration: BI 853520 was suspended in 0.5% hydroxyethyl cellulose, which was administered intragastrically through gavage needle every day, and the dosage was 10 mL/Kg body weight. Paclitaxel was dissolved in saline (0.9% NaCl), which was administered intravenously in a volume of 10 ml/kg body weight. The suspension of BI853520 could be used for up to 7 days. Paclitaxel solution was stored at 6° C. and used for up to 14 days.
(§1) 1.7. Monitoring tumor growth and side effects: Tumor diameters were measured with calipers three times a week. The volume [mm^3] of each tumor was calculated according to the equation “tumor volume=length×diameter^2×π/6”. To monitor the side effects of the treatment, the mice were checked daily for abnormalities and their body weights were measured three times a week. For ethical reasons, animals with tumors larger than 1.5 cm in diameter, ulcerated tumors, or 20% body weight loss were euthanized.
Statistical assessment of tumor volume and body weight on day 13 was performed. Animal number 1 (control group) was excluded from the statistical evaluation because of weight loss and had to be euthanized early (day 9). Measured tumor volume was used as the target variable in the statistical analysis. The number of animals and the median, minimum and maximum tumor volumes in each group were calculated. For a quick overview of possible treatment effects, the median tumor volume for each treatment group T and the median tumor volume for the control group C were used to calculate TGI: TGI=100×[(Cd−C1)−(Td−T1)]/(Cd−C1) • wherein, C1, T1=median tumor volume in control and treatment groups at the start of the assay (day 1). • Cd, Td=median tumor volume in control and treatment groups at the end of the assay (day 13).
(§2) The wilcoxon test was used for comparison. For body weight, the percent change relative to initial body weight on day 1 was used as the target variable for statistical analysis. The number of animals, and the median, minimum and maximum weight changes in each group were calculated.
(§3) One-sided test to compare all treatment groups with control group was performed for observing: • reduction in tumor volume (inhibition of tumor growth, efficacy parameter) and • reduction in weight changes (weight loss, tolerance parameters).
Within each subtopic, p-values for the efficacy parameter were compared and adjusted for multiple times according to Bonferroni-Holm. The p-value for the tolerance parameter was kept constant so as not to overlook possible side effects. […]
For orientation: Xenograft models place foreign cells or tissue in a host animal.

Data set [2] is described as follows: Body weight change (tolerability) in the KYSE-270 xenograft study. The data set is classed as in vivo, mouse. As for the experimental part: as §1, §2, §3
Within each subtopic, p-values for the efficacy parameter were compared and adjusted for multiple times according to Bonferroni-Holm. The p-value for the tolerance parameter was kept constant so as not to overlook possible side effects. Significance level was fixed at α=5%. A p-value (adjusted) of less than 0.05 was considered to show a statistically significant difference between groups, and 0.05≤p-value<0.10 was considered as an indicative difference. Statistical evaluations were performed using the SAS software package version 9.4 (SAS Institute Inc., Cary NC, USA).

One may read the TGI as the reduction of tumour growth relative to the control group.

Regarding `CC(=O)O[C@H]1C(=O)[C@@]2(C)[C@H]([C@H](OC(=O)c3ccccc3)[C@]3(O)C[C@H](OC(=O)[C@H](O)[C@@H](NC(=O)c4ccccc4)c4ccccc4)C(C)=C1C3(C)C)[C@]1(OC(C)=O)CO[C@@H]1C[C@@H]2O` [Paclitaxel, reference compound], the “Tumor shrinkage [x/y]” value in data set [1] (day 13) is 0/7; in data set [1] (day 13, listed as paclitaxel), “none”. In data set [1] (Paclitaxel 10 mg/Kg q7d i.v., day 13), this molecule gave a TGI of 2%. In data set [1] (paclitaxel 10 mg/kg once a week, day 13 (start 190 mm^3)), this molecule came in with a Median tumor volume of 1033 mm^3. The “Change in median weight” value in data set [2] (Paclitaxel 10 mg/Kg q7d, day 13 versus day 1) was −9.7%. Besides, the “Reduction in the median body weight” value in data set [2] (Paclitaxel 10 mg/kg once a week, day 13, given as a decrease) was 9.7%.

(Values after patent US12257251B2, “Use of FAK inhibitor in preparation of drug for treating tumors having NRAS mutation” (INXMED (NANJING) CO., LTD., priority 2019, dated 2025).)
